Test results published in PMC5347165, “Killing of Staphylococcus aureus and Salmonella enteritidis and neutralization of lipopolysaccharide by 17-residue bovine lactoferricins: improved activity of Trp/Ala-containing molecules” (Scientific Reports, 2017).

Test system: S. enteritidis CVCC3377
Assay: Inner membrane permeabilization, PI staining by flow cytometry
Format: cell-based, Salmonella enteritidis
Details: 1 × MIC, 37 °C, untreated 0.76%
Method: The permeabilization of the inner membrane was performed according to a previous report by Li et al. with slight modifications. […] Bacterial cells were then washed twice with PBS, fixed with 50 μg/ml PI and analyzed using a BD FACS Calibur Flow Cytometer (Franklin Lakes, New Jersey, USA). Data were analyzed using CellQuest Pro software (BD, USA).

## FKAWRWAWRMKKLAAPS [Lfcin4, 17-residue LfcinB17-31 derivative, Trp/Ala-containing]
30 min
  PI-positive cells: 2.94%
120 min
  PI-positive cells: 18.90%
